Laboratory results from patent publication US20110280941A1, “COMPOSITIONS OF PROTON PUMP INHIBITORS AND INSULIN SECRETAGOGUES, AND METHODS OF THEIR USE TO TREAT DIABETES” (Mefford Scientific, LLC, priority 2008, published 2011).

How the values were obtained:
Format in all cases: in vivo, human
[1] = test system: Type II diabetic patients; experiment: Plasma gastrin during 24 week omeprazole trial (Example 4); details: serum levels gradually reduced over time (FIG. 7)
Method: Statistical comparisons and analysis were performed with a commercial program, Analyse-it, version 2.20. Design: All subjects continued on their respective oral antidiabetic medications throughout the study. Baseline data was obtained in a fasting state after an overnight fast. Subjects were then administered 75 g of glucose and blood samples obtained at 1 and 2 hours. Following collection of baseline data, subjects were administered Omeprazole Delayed-Release Capsules USP, (Apotex Inc., Toronto, Canada [MUT] 179), 40 mg orally twice daily and blood samples again obtained after 8, and 16 weeks. Medications were not taken on the mornings of testing. Following the 16 week sample collection, subjects were increased to 80 mg Omeprazole twice daily and blood samples again obtained at 24 weeks. Measurements: Helicobacter Pylori IgG was obtained on each subject as a baseline as were Hemoglobin A1c and fasting Gastrin. Each 2 hour glucose tolerance test provided fasting glucose, insulin and c-peptide as well as 1 hour and 2 hour glucose and stimulated insulin and c-peptide. All measurements were obtained through a commercial laboratory using standardized analytical methods, Quest Diagnostics Laboratory, 5850 Rogerdale Road, Houston, Tex.

[2] = test system: Type II diabetic patients; experiment: % Beta Cell area calculated from the 2 hour glucose tolerance value (method of Meier et al) (Example 4); details: seven Type II diabetics; PPI administration
Method: (§1) Design: All subjects continued on their respective oral antidiabetic medications throughout the study. Baseline data was obtained in a fasting state after an overnight fast. Subjects were then administered 75 g of glucose and blood samples obtained at 1 and 2 hours. Following collection of baseline data, subjects were administered Omeprazole Delayed-Release Capsules USP, (Apotex Inc., Toronto, Canada M9L 179), 40 mg orally twice daily and blood samples again obtained after 8, and 16 weeks. Medications were not taken on the mornings of testing. Following the 16 week sample collection, subjects were increased to 80 mg Omeprazole twice daily and blood samples again obtained at 24 weeks.
Table 2 summarizes the effects of PPI administration on plasma Gastrin, Hemoglobin A1c and % Beta Cell area (calculated using the 2 hour glucose tolerance value by the method of Meier et al, Diabetes, vol 58, 1595-1603, 2009). […] Hemoglobin A1c, a measure of average blood glucose, was reduced by approximately 0.9% in this cohort, consistent with improved diabetes control (FIG. 6). Finally, the calculated Beta cell mass increased across the treatment period by approximately 25%.

[3] = test system: Type II diabetic patients; experiment: 2 hour glucose tolerance test during 24 week omeprazole trial (Example 4)
Method: (§2) Seven Type II diabetic patients were administered omeprazole for 24 weeks and data was obtained from fasting and following a 2 hour glucose tolerance test at 8 week intervals and compared to baseline values. Statistical comparisons and analysis were performed with a commercial program, Analyse-it, version 2.20.
(§3) Subjects: Five males, 2 females, age range 42-68 years, mean age 54+10 years. BMI's ranged from 31 to 49, mean 38+6. All subjects had co-morbid hypertension, four had co-morbid dyslipidemia and two had co-morbid hypothyroidism. All were stable on oral diabetes medications with 7/7 on metformin, 6/7 on pioglitazone (Actos), 4/7 on a DPP-4 inhibitor, sitagliptan (Januvia) and 4/7 on a Sulfonylurea. All subjects received a physical exam, review of systems and a baseline EKG prior to initiating the PPI trial. Subjects were then seen and evaluated at monthly intervals interviewed for adverse events and monitored for medication compliance and maintenance of daily blood glucose logs.
as §1
Measurements: Helicobacter Pylori IgG was obtained on each subject as a baseline as were Hemoglobin A1c and fasting Gastrin. Each 2 hour glucose tolerance test provided fasting glucose, insulin and c-peptide as well as 1 hour and 2 hour glucose and stimulated insulin and c-peptide. All measurements were obtained through a commercial laboratory using standardized analytical methods, Quest Diagnostics Laboratory, 5850 Rogerdale Road, Houston, Tex. 77072.

[4] = test system: Type II diabetic patients; experiment: Hemoglobin A1c during 24 week omeprazole trial (Example 4)
Method: as §2, §3
Design: All subjects continued on their respective oral antidiabetic medications throughout the study. Baseline data was obtained in a fasting state after an overnight fast. Subjects were then administered 75 g of glucose and blood samples obtained at 1 and 2 hours. […]

[5] = after PPI administration (FIG. 4)

COc1ccc2[nH]c([S+]([O-])Cc3ncc(C)c(OC)c3C)nc2c1 (stereo not drawn) [Omeprazole, 5-methoxy-2-[(4-methoxy-3,5-dimethyl-2-pyridinyl)methyl]sulfinyl-1H-benzimidazole]
plasma gastrin, change by long term PPI administration [1]: markedly elevated
calculated Beta cell mass increase across the treatment period [2]: approximately 25%
maximum glucose excursion at both 1 and 2 hours, change ([3]; 8 and 16 weeks, statistically significant reductions at 16 weeks (FIG. 3)): reduced
Stimulated insulin secretion at both 1 and 2 hours, change [3, 5]: increased
fasting insulin levels, change [3, 5]: unchanged
1 and 2 hour c-peptide secretion, change ([3]; after PPI administration (FIG. 5)): increased
Fasting blood glucose, change ([3]; at both 8 and 16 weeks (FIG. 3)): reduced
percent hemoglobin A1c, change for all patients ([4]; FIG. 1, statistically significant): decrease
Hemoglobin A1c reduction in this cohort ([4]; seven Type II diabetics, PPI administration up to 24 weeks (FIG. 6)): approximately 0.9%
